pIC50: −log10 of the molar value.
Tested on: 967376-340-R-J2-PDC multicell spheroid viability
Experiment: Anticancer human tumor 967376-340-R-J2-PDC patient-derived colon adenocarcinoma cell line growth inhibition [PI3K]
Conditions: for pIC50: curve of first compound; for viability, T/C: stronger effect = lower value
Method in brief: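 Tumor cells were combined with HUVEC and MSCs into spheroids, then dosed with PI3K-inhibitor combinations over half-log ranges capped near clinical Cmax or 10 microM.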

[1] = second compound 0.00316 µM, first compound 0.0316 µM
[2] = second compound 0.00316 µM, first compound 0.1 µM
[3] = second compound 0.00316 µM, first compound 0.316 µM
[4] = second compound 0.00316 µM, first compound 1 µM
[5] = second compound 0.00316 µM, first compound 3.16 µM
[6] = second compound 0.00316 µM, first compound 10 µM
[7] = second compound 0.01 µM, first compound 0.0316 µM
[8] = second compound 0.01 µM, first compound 0.1 µM
[9] = second compound 0.01 µM, first compound 0.316 µM
[10] = second compound 0.01 µM, first compound 1 µM
[11] = second compound 0.01 µM, first compound 3.16 µM
[12] = second compound 0.01 µM, first compound 10 µM
[13] = second compound 0.0316 µM, first compound 0.0316 µM
[14] = second compound 0.0316 µM, first compound 0.1 µM
[15] = second compound 0.0316 µM, first compound 0.316 µM
[16] = second compound 0.0316 µM, first compound 1 µM
[17] = second compound 0.0316 µM, first compound 3.16 µM
[18] = second compound 0.0316 µM, first compound 10 µM
[19] = second compound 0.1 µM, first compound 0.0316 µM
[20] = second compound 0.1 µM, first compound 0.1 µM
[21] = second compound 0.1 µM, first compound 0.316 µM
[22] = second compound 0.1 µM, first compound 1 µM
[23] = second compound 0.1 µM, first compound 3.16 µM
[24] = second compound 0.1 µM, first compound 10 µM
[25] = second compound 0.316 µM, first compound 0.0316 µM
[26] = second compound 0.316 µM, first compound 0.1 µM
[27] = second compound 0.316 µM, first compound 0.316 µM
[28] = second compound 0.316 µM, first compound 1 µM
[29] = second compound 0.316 µM, first compound 3.16 µM
[30] = second compound 0.316 µM, first compound 10 µM
[31] = second compound 1 µM, first compound 0.0316 µM
[32] = second compound 1 µM, first compound 0.1 µM
[33] = second compound 1 µM, first compound 0.316 µM
[34] = second compound 1 µM, first compound 1 µM
[35] = second compound 1 µM, first compound 3.16 µM
[36] = second compound 1 µM, first compound 10 µM
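Note: spheroids exposed to agents for 7 days before read-out.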
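Throughout, for viability, T/C: luminescence used as surrogate of cell viability.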

Q: How did the pIC50 (second compound 0.00316 µM) turn out when `CC1(C)CCC(CN2CCN(c3ccc(C(=O)NS(=O)(=O)c4ccc(NCC5CCOCC5)c([N+](=O)[O-])c4)c(Oc4cnc5[nH]ccc5c4)c3)CC2)=C(c2ccc(Cl)cc2)C1` + COc1c(OCCCN2CCOCC2)ccc2c3n(c(=NC(=O)c4cnc(N)nc4)nc12)CCN3 was run?
A: < 5.00

Q: And the pIC50 (second compound 0.01 µM)?
A: < 5.00

Q: And the pIC50 (second compound 0.0316 µM)?
A: 5.10

Q: What about the pIC50 (second compound 0.1 µM) of the same molecule?
A: 5.92

Q: And the pIC50 (second compound 0.316 µM)?
A: > 7.50

Q: And the pIC50 (second compound 1 µM)?
A: > 7.50

Q: What about the viability, T/C [1] of the same molecule?
A: 92.6%

Q: And the viability, T/C [2]?
A: 82%

Q: What about the viability, T/C [3] of the same molecule?
A: 94.8%

Q: What about the viability, T/C [4] of the same molecule?
A: 108%

Q: What about the viability, T/C [5] of the same molecule?
A: 81.6%

Q: What about the viability, T/C [6] of the same molecule?
A: 64.3%

Q: And the viability, T/C [7]?
A: 83.2%

Q: What about the viability, T/C [8] of the same molecule?
A: 87.6%

Q: And the viability, T/C [9]?
A: 82.9%

Q: And the viability, T/C [10]?
A: 75.8%

Q: And the viability, T/C [11]?
A: 76.4%

Q: And the viability, T/C [12]?
A: 55.8%

Q: And the viability, T/C [13]?
A: 76.9%

Q: And the viability, T/C [14]?
A: 73.6%

Q: What about the viability, T/C [15] of the same molecule?
A: 63.6%

Q: What about the viability, T/C [16] of the same molecule?
A: 67.2%

Q: And the viability, T/C [17]?
A: 62.6%

Q: What about the viability, T/C [18] of the same molecule?
A: 46.1%

Q: What about the viability, T/C [19] of the same molecule?
A: 56.6%

Q: What about the viability, T/C [20] of the same molecule?
A: 67%

Q: And the viability, T/C [21]?
A: 44.2%

Q: And the viability, T/C [22]?
A: 48.5%

Q: What about the viability, T/C [23] of the same molecule?
A: 54.6%

Q: What about the viability, T/C [24] of the same molecule?
A: 39.5%

Q: What about the viability, T/C [25] of the same molecule?
A: 35.4%

Q: What about the viability, T/C [26] of the same molecule?
A: 44.6%

Q: And the viability, T/C [27]?
A: 31.2%

Q: What about the viability, T/C [28] of the same molecule?
A: 40%

Q: And the viability, T/C [29]?
A: 37.4%

Q: What about the viability, T/C [30] of the same molecule?
A: 21.4%

Q: And the viability, T/C [31]?
A: 48.5%

Q: And the viability, T/C [32]?
A: 28.9%

Q: And the viability, T/C [33]?
A: 35.2%

Q: What about the viability, T/C [34] of the same molecule?
A: 24.8%

Q: What about the viability, T/C [35] of the same molecule?
A: 30.9%

Q: And the viability, T/C [36]?
A: 27.8%

Q: How did the pIC50 (second compound 0.00316 µM) turn out when `CCCS(=O)(=O)Nc1ccc(F)c(C(=O)c2c[nH]c3ncc(-c4ccc(Cl)cc4)cc23)c1F` + COc1c(OCCCN2CCOCC2)ccc2c3n(c(=NC(=O)c4cnc(N)nc4)nc12)CCN3 was run?
A: < 5.00

Q: And the pIC50 (second compound 0.01 µM)?
A: < 5.00

Q: What about the pIC50 (second compound 0.0316 µM) of the same molecule?
A: < 5.00

Q: And the pIC50 (second compound 0.1 µM)?
A: < 5.00

Q: And the pIC50 (second compound 0.316 µM)?
A: > 7.50

Q: What about the pIC50 (second compound 1 µM) of the same molecule?
A: > 7.50

Q: What about the viability, T/C [1] of the same molecule?
A: 94.8%

Q: What about the viability, T/C [2] of the same molecule?
A: 94.7%

Q: And the viability, T/C [3]?
A: 82.8%

Q: What about the viability, T/C [4] of the same molecule?
A: 101%

Q: What about the viability, T/C [5] of the same molecule?
A: 74.3%

Q: What about the viability, T/C [6] of the same molecule?
A: 59.6%

Q: And the viability, T/C [7]?
A: 104%

Q: And the viability, T/C [8]?
A: 78.9%

Q: What about the viability, T/C [9] of the same molecule?
A: 81.8%

Q: And the viability, T/C [10]?
A: 73.6%

Q: And the viability, T/C [11]?
A: 90%

Q: What about the viability, T/C [12] of the same molecule?
A: 61.8%

Q: And the viability, T/C [13]?
A: 68.1%

Q: What about the viability, T/C [14] of the same molecule?
A: 63.4%

Q: What about the viability, T/C [15] of the same molecule?
A: 73.8%

Q: And the viability, T/C [16]?
A: 79%

Q: What about the viability, T/C [17] of the same molecule?
A: 69.7%

Q: What about the viability, T/C [18] of the same molecule?
A: 69.1%

Q: And the viability, T/C [19]?
A: 63.2%

Q: And the viability, T/C [20]?
A: 58.5%

Q: What about the viability, T/C [21] of the same molecule?
A: 77%

Q: And the viability, T/C [22]?
A: 51.1%

Q: What about the viability, T/C [23] of the same molecule?
A: 63%

Q: What about the viability, T/C [24] of the same molecule?
A: 54%

Q: And the viability, T/C [25]?
A: 39.4%

Q: What about the viability, T/C [26] of the same molecule?
A: 36.5%

Q: What about the viability, T/C [27] of the same molecule?
A: 57.1%

Q: What about the viability, T/C [28] of the same molecule?
A: 34.6%

Q: What about the viability, T/C [29] of the same molecule?
A: 68.1%

Q: What about the viability, T/C [30] of the same molecule?
A: 58.8%

Q: And the viability, T/C [31]?
A: 31.6%

Q: What about the viability, T/C [32] of the same molecule?
A: 41.6%

Q: And the viability, T/C [33]?
A: 25.8%

Q: And the viability, T/C [34]?
A: 46.1%

Q: What about the viability, T/C [35] of the same molecule?
A: 41%

Q: And the viability, T/C [36]?
A: 34.8%

Q: What does the source list for `CNC(=O)c1ccc(N2C(=S)N(c3ccc(C#N)c(C(F)(F)F)c3)C(=O)C2(C)C)cc1F` + COc1c(OCCCN2CCOCC2)ccc2c3n(c(=NC(=O)c4cnc(N)nc4)nc12)CCN3?
A: pIC50 (second compound 0.00316 µM): < 5.00; pIC50 (second compound 0.01 µM): < 5.00; pIC50 (second compound 0.0316 µM): < 5.00; pIC50 (second compound 0.1 µM): < 5.00; pIC50 (second compound 0.316 µM): 6.41; pIC50 (second compound 1 µM): > 7.50; viability, T/C [1]: 92%; viability, T/C [2]: 90%; viability, T/C [3]: 73.3%; viability, T/C [4]: 93%; viability, T/C [5]: 113%; viability, T/C [6]: 102%; viability, T/C [7]: 90%; viability, T/C [8]: 82.7%; viability, T/C [9]: 65.7%; viability, T/C [10]: 87.3%; viability, T/C [11]: 105%; viability, T/C [12]: 120%; viability, T/C [13]: 78%; viability, T/C [14]: 64.9%; viability, T/C [15]: 64.5%; viability, T/C [16]: 60.9%; viability, T/C [17]: 79.9%; viability, T/C [18]: 66%; viability, T/C [19]: 65.7%; viability, T/C [20]: 64.3%; viability, T/C [21]: 64.5%; viability, T/C [22]: 51%; viability, T/C [23]: 53.3%; viability, T/C [24]: 64.6%; viability, T/C [25]: 50.3%; viability, T/C [26]: 50.3%; viability, T/C [27]: 54.5%; viability, T/C [28]: 34.8%; viability, T/C [29]: 37.5%; viability, T/C [30]: 54.2%; viability, T/C [31]: 35%; viability, T/C [32]: 36.5%; viability, T/C [33]: 39.8%; viability, T/C [34]: 34.6%; viability, T/C [35]: 36.6%; viability, T/C [36]: 28.1%

Source: PubChem BioAssay AID1963962 (Molecular Pharmacology Branch, DTP, NCI, 2024)
